Literature values as cited in patent US20040109898A1, “Topical composition for heightened sensitivity” (priority 2002, published 2004).
Where two headings read alike, the source gives them in different places.

Key:
[1] = cold, heat, cooking, freezing

In the case of COc1cc(CNC(=O)CCCC/C=C/C(C)C)ccc1O [Capsaicin, 8-methyl-N-vanillyl-6-(E)-nonenamide], the “stability / retention of potency” value [1] is given as “seemingly unaffected by cold or heat, which retains its original potency despite time, cooking, or freezing”, the “Scoville Units rating” value (panel of individuals; individual capsaicinoid) is given as 16 million Scoville Units and the “Scoville Unit (SU) rating” value (panel of individuals; pure, individual capsaicinoids) is given as 16 million SU. The “detectable to the palate in dilutions of” value (palate) was “one to seventeen million”, the “solubility in alcohols, fats, and oils” value (alcohols, fats, and oils) was “very soluble” and the solubility in water (water) was “slightly soluble”.
For COc1cc(CNC(=O)CCCCC/C=C/C(C)C)ccc1O [Homocapsaicin, 9-methyl-N-vanillyl-7-(E)-decenamide], the “Scoville Unit (SU) rating” value (panel of individuals) is listed as 8.6 million SU.
In the case of COc1cc(CNC(=O)CCCCCCCC(C)C)ccc1O [Homodihydrocapsaicin, 9-methyl-N-vanillyl-decanamide], the “Scoville Unit (SU) rating” value (panel of individuals; pure, individual capsaicinoids) is listed as 8.6 million SU.
